Measured values from patent US20230279002A1, “Polymorphs of Crystalline Forms of 3,10-dimethoxy-5,8,13,13a-tetrahydro-6H-isoquinolino[3,2-a]isoquinolin-9-yl 3-fluorobenzenesulfonate and Salts Thereof” (CVI Pharmaceuticals Limited, priority 2020, published 2023).
“Also recorded” adds a separate entry of the source.

Columns and labels:
Assay type in all cases: physicochemical
[1] = Solid stability at 40° C./0% RH (closed) and 40° C./75% RH (open), HPLC; conditions: for 0 day % remaining / 7 day % remaining / 21 day % remaining: solid
Method in brief: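 Solid compound (5 mg) stored in the dark at 40 °C/0% RH in closed vials and at 40 °C/75% RH open. Samples analysed by HPLC at day 0, 5 and 10, or at days 0, 7 and 21, depending on the study.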

[2] = DVS (Dynamic Vapor Sorption) moisture sorption/desorption, hygroscopicity classification; conditions: 25 °C; for Change In Mass (%) - ref, Desorption / Change In Mass (%) - ref, Sorption / Change In Mass (%) - ref, Hysteresis: Cycle 1
Method in brief: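 Moisture sorption/desorption profiled by DVS on about 10–20 mg sample, isothermal at 25° C, cycling 0%→95%→0% RH in 5% RH steps. Equilibrium per step taken at dm/dt ≤ 0.01%/min. Hygroscopicity class assigned from %-moisture gain versus rising RH.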

[3] = Solution stability in 0.1 N HCl, pH 4.5 buffer and pH 6.8 buffer at 25° C. and 37° C., HPLC
Method in brief: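 Methanol stock (1.0 mg/mL) diluted with each medium to ionic strength 0.15 M, final 50 μg/mL in 40% MeOH; acetate used for pH 4.5. For 1b and 3b at pH 6.8, final 25 μg/mL in 40% DMSO. Solutions stored at 25° C. and 37° C.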

[4] = TGA (Thermal Gravimetric Analysis) weight loss; conditions: room temperature to 120° C.
Description: TGA (Thermal Gravimetric Analysis): Samples of compounds (4˜6 mg) were weighed into the pan, and heated under nitrogen purge using a ramp rate of 20° C./min over the range of 30° C.˜350° C.

[5] = Solubility in SGF, FaSSIF, FeSSIF, 0.1M HCl, pH 4.5 and pH 6.8 aqueous at 25° C. (HPLC); conditions: for Solubility conc.(mg/ml): solubility of salts transformed to freebase; for Final pH: solubility test
Description: Solubility: Excess drug substance was equilibrated with SGF (Simulated Gastric Fluid), FaSSIF (Simulated Small Intestinal Fluid under Fasted state), FeSSIF (Simulated Small Intestinal Fluid under Fed state), 0.1M HCl, pH 4.5 aqueous, and pH 6.8 aqueous at 25° C. After stirring for 20˜24 h, each sample was filtered, diluted appropriately and analyzed by HPLC. The experiment was terminated once a solubility target of 5 mg/mL was reached.

3,10-dimethoxy-5,8,13,13a-tetrahydro-6H-isoquinolino[3,2-a]isoquinolin-9-yl 3-fluorobenzenesulfonate [Compound 1b]
Solid-state stability (HPLC) ([1]; 40° C./0% RH (closed) and 40° C./75% RH (open), dark, up to 3 weeks): substantially stable
0 day % remaining ([1]; 40° C. (0% RH, closed)): 100.0%
7 day % remaining ([1]; 40° C. (0% RH, closed)): 99.3%
21 day % remaining ([1]; 40° C. (0% RH, closed)): 98.4%
0 day % remaining ([1]; 40° C./75% RH (open)): 100.0%
7 day % remaining ([1]; 40° C./75% RH (open)): 99.2%
21 day % remaining ([1]; 40° C./75% RH (open)): 102.0%
Hygroscopicity classification by DVS [2]: non-hygroscopic; also recorded: not hygroscopic
Change In Mass (%) - ref, Desorption ([2]; Target RH 0.0 %): 0.0000%
Change In Mass (%) - ref, Sorption ([2]; Target RH 0.0 %): 0.0000%
Change In Mass (%) - ref, Desorption ([2]; Target RH 5.0 %): 0.0094%
Change In Mass (%) - ref, Hysteresis ([2]; Target RH 5.0 %): 0.0031%
Change In Mass (%) - ref, Sorption ([2]; Target RH 5.0 %): 0.0063%
Change In Mass (%) - ref, Desorption ([2]; Target RH 10.0 %): 0.0157%
Change In Mass (%) - ref, Hysteresis ([2]; Target RH 10.0 %): 0.0052%
Change In Mass (%) - ref, Sorption ([2]; Target RH 10.0 %): 0.0104%
Change In Mass (%) - ref, Desorption ([2]; Target RH 15.0 %): 0.0198%
Change In Mass (%) - ref, Hysteresis ([2]; Target RH 15.0 %): 0.0063%
Change In Mass (%) - ref, Sorption ([2]; Target RH 15.0 %): 0.0136%
Change In Mass (%) - ref, Desorption ([2]; Target RH 20.0 %): 0.0251%
Change In Mass (%) - ref, Hysteresis ([2]; Target RH 20.0 %): 0.0073%
Change In Mass (%) - ref, Sorption ([2]; Target RH 20.0 %): 0.0178%
Change In Mass (%) - ref, Desorption ([2]; Target RH 25.0 %): 0.0292%
Change In Mass (%) - ref, Hysteresis ([2]; Target RH 25.0 %): 0.0084%
Change In Mass (%) - ref, Sorption ([2]; Target RH 25.0 %): 0.0209%
Change In Mass (%) - ref, Desorption ([2]; Target RH 30.0 %): 0.0334%
Change In Mass (%) - ref, Hysteresis ([2]; Target RH 30.0 %): 0.0104%
Change In Mass (%) - ref, Sorption ([2]; Target RH 30.0 %): 0.0230%
Change In Mass (%) - ref, Desorption ([2]; Target RH 35.0 %): 0.0386%
Change In Mass (%) - ref, Hysteresis ([2]; Target RH 35.0 %): 0.0125%
Change In Mass (%) - ref, Sorption ([2]; Target RH 35.0 %): 0.0261%
Change In Mass (%) - ref, Desorption ([2]; Target RH 40.0 %): 0.0449%
Change In Mass (%) - ref, Hysteresis ([2]; Target RH 40.0 %): 0.0094%
Change In Mass (%) - ref, Sorption ([2]; Target RH 40.0 %): 0.0355%
Change In Mass (%) - ref, Desorption ([2]; Target RH 45.0 %): 0.0501%
Change In Mass (%) - ref, Hysteresis ([2]; Target RH 45.0 %): 0.0104%
Change In Mass (%) - ref, Sorption ([2]; Target RH 45.0 %): 0.0397%
Change In Mass (%) - ref, Desorption ([2]; Target RH 50.0 %): 0.0543%
Change In Mass (%) - ref, Hysteresis ([2]; Target RH 50.0 %): 0.0115%
Change In Mass (%) - ref, Sorption ([2]; Target RH 50.0 %): 0.0428%
Change In Mass (%) - ref, Desorption ([2]; Target RH 55.0 %): 0.0606%
Change In Mass (%) - ref, Hysteresis ([2]; Target RH 55.0 %): 0.0146%
Change In Mass (%) - ref, Sorption ([2]; Target RH 55.0 %): 0.0460%
Change In Mass (%) - ref, Desorption ([2]; Target RH 60.0 %): 0.0658%
Change In Mass (%) - ref, Hysteresis ([2]; Target RH 60.0 %): 0.0178%
Change In Mass (%) - ref, Sorption ([2]; Target RH 60.0 %): 0.0480%
Change In Mass (%) - ref, Desorption ([2]; Target RH 65.0 %): 0.0689%
Change In Mass (%) - ref, Hysteresis ([2]; Target RH 65.0 %): 0.0178%
Change In Mass (%) - ref, Sorption ([2]; Target RH 65.0 %): 0.0512%
Change In Mass (%) - ref, Desorption ([2]; Target RH 70.0 %): 0.0731%
Change In Mass (%) - ref, Hysteresis ([2]; Target RH 70.0 %): 0.0157%
Change In Mass (%) - ref, Sorption ([2]; Target RH 70.0 %): 0.0574%
Change In Mass (%) - ref, Desorption ([2]; Target RH 75.0 %): 0.0794%
Change In Mass (%) - ref, Hysteresis ([2]; Target RH 75.0 %): 0.0146%
Change In Mass (%) - ref, Sorption ([2]; Target RH 75.0 %): 0.0648%
Change In Mass (%) - ref, Desorption ([2]; Target RH 80.0 %): 0.0857%
Change In Mass (%) - ref, Hysteresis ([2]; Target RH 80.0 %): 0.0136%
Change In Mass (%) - ref, Sorption ([2]; Target RH 80.0 %): 0.0721%
Change In Mass (%) - ref, Desorption ([2]; Target RH 85.0 %): 0.0940%
Change In Mass (%) - ref, Hysteresis ([2]; Target RH 85.0 %): 0.0136%
Change In Mass (%) - ref, Sorption ([2]; Target RH 85.0 %): 0.0804%
Change In Mass (%) - ref, Desorption ([2]; Target RH 90.0 %): 0.1065%
Change In Mass (%) - ref, Hysteresis ([2]; Target RH 90.0 %): 0.0115%
Change In Mass (%) - ref, Sorption ([2]; Target RH 90.0 %): 0.0951%
Change In Mass (%) - ref, Desorption ([2]; Target RH 95.0 %): 0.1159%
Change In Mass (%) - ref, Sorption ([2]; Target RH 95.0 %): 0.1159%
moisture picked up (DVS) ([2]; at 95% RH): ~0.2%
Remaining % ([3]; 25° C., 0.1N HCL, 0 h, 50 μg/mL, 40% MeOH): 100.00%
Remaining % ([3]; 25° C., 0.1N HCL, 3 h, 50 μg/mL, 40% MeOH): 100.53%
Remaining % ([3]; 25° C., 0.1N HCL, 24 h, 50 μg/mL, 40% MeOH): 100.88%
Solution stability ([3]; 25° C., 24 h, 0.1N HCl, pH 4.5 buffer): stable
Solution stability ([3]; 25° C., 24 h, pH 6.8 buffer): clear degradations
Remaining % ([3]; 25° C., pH 4.5, 0 h, 50 μg/mL, 40% MeOH): 100.00%
Remaining % ([3]; 25° C., pH 4.5, 3 h, 50 μg/mL, 40% MeOH): 99.94%
Remaining % ([3]; 25° C., pH 4.5, 24 h, 50 μg/mL, 40% MeOH): 98.79%
Remaining % ([3]; 25° C., pH 6.8*, 0 h, final conc. 25 μg/mL with 40% DMSO): 100.00%
Remaining % ([3]; 25° C., pH 6.8*, 3 h, final conc. 25 μg/mL with 40% DMSO): 99.18%
Remaining % ([3]; 25° C., pH 6.8*, 24 h, final conc. 25 μg/mL with 40% DMSO): 91.23%
Remaining % ([3]; 37° C., 0.1N HCL, 0 h, 50 μg/mL, 40% MeOH): 100.00%
Remaining % ([3]; 37° C., 0.1N HCL, 3 h, 50 μg/mL, 40% MeOH): 101.92%
Remaining % ([3]; 37° C., 0.1N HCL, 24 h, 50 μg/mL, 40% MeOH): 100.14%
Solution stability ([3]; 37° C., 24 h, 0.1N HCl, pH 4.5 buffer): stable
Solution stability ([3]; 37° C., 24 h, pH 6.8 buffer): decomposed
Remaining % ([3]; 37° C., pH 4.5, 0 h, 50 μg/mL, 40% MeOH): 100.00%
Remaining % ([3]; 37° C., pH 4.5, 3 h, 50 μg/mL, 40% MeOH): 99.51%
Remaining % ([3]; 37° C., pH 4.5, 24 h, 50 μg/mL, 40% MeOH): 98.83%
Remaining % ([3]; 37° C., pH 6.8*, 0 h, final conc. 25 μg/mL with 40% DMSO): 100.00%
Remaining % ([3]; 37° C., pH 6.8*, 3 h, final conc. 25 μg/mL with 40% DMSO): 98.97%
Remaining % ([3]; 37° C., pH 6.8*, 24 h, final conc. 25 μg/mL with 40% DMSO): 94.70%
TGA weight loss (in words) [4]: almost no weight loss
Solubility conc.(mg/ml) ([5]; 0.1N HCL): 0.605 mg/mL
Solubility conc.(mg/ml) ([5]; FaSSIF): 0.007 mg/mL
Solubility conc.(mg/ml) ([5]; FeSSIF): 0.009 mg/mL
Solubility conc.(mg/ml) ([5]; SGF): 0.588 mg/mL
Solubility conc.(mg/ml) ([5]; Water): 0.008 mg/mL
Solubility conc.(mg/ml) ([5]; pH 4.5 Acetate Buffer (USP)): 0.008 mg/mL
Solubility conc.(mg/ml) ([5]; pH 6.8 Phosphate Buffer (USP)): 0.011 mg/mL
Final pH ([5]; 0.1N HCL): 1.68
Final pH ([5]; FaSSIF): 6.52
Final pH ([5]; FeSSIF): 5.14
Final pH ([5]; SGF): 1.67
Final pH ([5]; Water): 5.42
Final pH ([5]; pH 4.5 Acetate Buffer (USP)): 4.59
Final pH ([5]; pH 6.8 Phosphate Buffer (USP)): 6.91
